Data taken from publication PMC7721589, “Synthesis and structure-activity relationships for tetrahydroisoquinoline-based inhibitors of Mycobacterium tuberculosis” (Bioorganic & Medicinal Chemistry, 2020).
≈ marks a conversion by molar mass, not a printed value. Where two headings read alike, the source gives them in different places.

Columns and labels:
[1] = Microsomal clearance in mouse liver microsomes; note: unit not given here
[2] = test system: M.tb strain H37Rv; experiment: MIC against M.tb H37Rv under non-replicating (LORA) conditions; conditions: for MIC LORA: MIC90, Table 1
[3] = test system: Vero green monkey-derived epithelial kidney cells; experiment: Mammalian cytotoxicity in Vero cells; type: cell-based; conditions: Table 1; for IC50: Chlorocebus sabaeus
[4] = Microsomal clearance in human liver microsomes; note: unit not given here
[5] = test system: M.tb strain H37Rv; experiment: MIC against M.tb H37Rv under aerobic (replicating; MABA) conditions; type: cell-based, Mycobacterium tuberculosis; conditions: for MIC MABA: MIC90, Table 1; for MIC: Mycobacterium tuberculosis, MIC90, Table 1, read-out: MIC MABA
[6] = human, microsomes
[7] = target: M. smegmatis ATP synthase (Mycolicibacterium smegmatis, UniProt A0R205+A0R206); experiment: Inhibition of mycobacterial ATP synthase; type: biochemical; conditions: for IC50: read-out: M. smeg ATPsynth IC50; for IC50 / M. smeg ATPsynth IC50: M. smegmatis ATP synthase
[8] = mouse, microsomes
[9] = target: human mitochondrial ATP synthase (Homo sapiens, UniProt P00846+P05496); experiment: Inhibition of human mitochondrial ATP synthase; type: biochemical
[10] = Stability in CDCl3 solution; type: physicochemical; conditions: over 1–2 days
Description: Note: The X = OMe compounds 8 and 9 were unstable in CDCl3 solution over 1–2 days.

Sequence of human mitochondrial ATP synthase (P05496 62-136): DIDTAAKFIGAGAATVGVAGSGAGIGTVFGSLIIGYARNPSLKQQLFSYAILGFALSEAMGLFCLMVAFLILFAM
Sequence of human mitochondrial ATP synthase (P00846 whole entry): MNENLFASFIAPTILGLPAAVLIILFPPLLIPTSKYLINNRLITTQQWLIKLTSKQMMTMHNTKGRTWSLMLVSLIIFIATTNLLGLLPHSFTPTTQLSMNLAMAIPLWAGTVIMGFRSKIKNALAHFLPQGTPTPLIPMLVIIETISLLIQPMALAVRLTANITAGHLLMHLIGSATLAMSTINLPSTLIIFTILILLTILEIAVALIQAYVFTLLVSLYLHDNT
Sequence of human mitochondrial ATP synthase (P06576 48-529, further chain): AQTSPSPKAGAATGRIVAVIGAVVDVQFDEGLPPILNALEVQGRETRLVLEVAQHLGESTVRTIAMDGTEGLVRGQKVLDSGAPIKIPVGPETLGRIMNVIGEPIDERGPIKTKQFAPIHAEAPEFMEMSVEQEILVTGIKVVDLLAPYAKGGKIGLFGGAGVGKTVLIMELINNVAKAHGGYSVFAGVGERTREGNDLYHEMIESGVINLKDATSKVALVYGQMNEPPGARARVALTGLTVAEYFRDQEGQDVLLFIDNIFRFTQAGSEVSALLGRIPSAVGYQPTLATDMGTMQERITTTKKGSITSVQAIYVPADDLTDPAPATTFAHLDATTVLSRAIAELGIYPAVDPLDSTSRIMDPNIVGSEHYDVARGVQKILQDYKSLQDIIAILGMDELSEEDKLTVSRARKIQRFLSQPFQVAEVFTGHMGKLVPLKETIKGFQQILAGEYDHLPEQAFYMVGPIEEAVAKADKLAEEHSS
Sequence of human mitochondrial ATP synthase (P25705 44-553, further chain): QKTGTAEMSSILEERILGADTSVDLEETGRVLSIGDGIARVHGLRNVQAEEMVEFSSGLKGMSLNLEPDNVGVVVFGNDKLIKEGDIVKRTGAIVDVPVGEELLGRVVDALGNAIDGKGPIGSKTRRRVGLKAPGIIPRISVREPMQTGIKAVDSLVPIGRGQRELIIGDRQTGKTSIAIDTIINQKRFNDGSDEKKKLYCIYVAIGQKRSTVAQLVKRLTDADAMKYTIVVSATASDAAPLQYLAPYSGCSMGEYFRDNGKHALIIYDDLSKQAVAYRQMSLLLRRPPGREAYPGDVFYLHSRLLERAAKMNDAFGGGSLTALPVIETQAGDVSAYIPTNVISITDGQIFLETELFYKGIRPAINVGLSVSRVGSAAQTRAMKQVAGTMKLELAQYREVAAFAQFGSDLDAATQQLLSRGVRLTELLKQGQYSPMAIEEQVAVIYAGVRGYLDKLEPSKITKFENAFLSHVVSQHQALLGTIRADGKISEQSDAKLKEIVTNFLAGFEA
Sequence of human mitochondrial ATP synthase (P30049 23-168, further chain): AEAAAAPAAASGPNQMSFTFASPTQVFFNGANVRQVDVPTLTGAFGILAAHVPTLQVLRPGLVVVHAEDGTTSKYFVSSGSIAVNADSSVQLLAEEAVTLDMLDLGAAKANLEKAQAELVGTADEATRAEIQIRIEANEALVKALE
Sequence of human mitochondrial ATP synthase (P36542 26-298, further chain): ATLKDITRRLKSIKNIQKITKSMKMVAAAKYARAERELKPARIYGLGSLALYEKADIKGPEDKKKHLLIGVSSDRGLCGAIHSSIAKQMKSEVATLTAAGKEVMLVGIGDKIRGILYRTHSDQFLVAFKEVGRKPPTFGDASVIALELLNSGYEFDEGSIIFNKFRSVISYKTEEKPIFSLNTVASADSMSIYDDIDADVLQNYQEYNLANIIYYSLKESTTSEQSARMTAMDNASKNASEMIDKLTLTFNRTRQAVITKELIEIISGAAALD

Compound	MLM Clint [1]	MIC LORA [2]	MIC (µg/mL) LORA ([2]; MIC90, Table 2)	IC50 VERO [3]	HLM Clint [4]	MIC MABA [5]	MIC (µg/mL) MABA ([5]; MIC90, Table 2)	HLM Clint [6]	IC50 [7]	IC50 [3]	MLM Clint [8]	melting point	MIC [5]	Mamm. ATPsynth IC50 [9]	M. smeg ATPsynth IC50 [7]	selectivity over the human enzyme ([7]; M. smegmatis vs human mitochondrial ATP synthase)	stability in CDCl3 solution [10]
2-((5-(4-Chlorophenyl)pyridin-2-yl)methyl)-8-(4-methylpiperazin-1-yl)-5-methyl-1,2,3,4-tetrahydroisoquinoline [Compound 12]	239	5.2 µg/mL	5.2 µg/mL	14 µg/mL	92	0.79 µg/mL	0.79 µg/mL	–	–	–	–	–	–	–	–	–	–
N-(5-(4-(tert-butyl)phenyl)pyridin-2-yl)-5-methyl-8-(4-methylpiperazin-1-yl)-3,4-dihydroisoquinoline-2(1H)-carboxamide [Compound 7]	56	3.4 µg/mL	–	18 µg/mL	41	1.4 µg/mL	–	–	–	–	–	–	–	–	–	–	–
COc1ccc(N2CCN(C)CC2)c2c1CCN(C(=O)Nc1ccc(-c3ccc(Cl)cc3Cl)cn1)C2 [Compound 36, N-(5-(2,4-Dichlorophenyl)pyridin-2-yl)-5-methoxy-8-(4-methylpiperazin-1-yl)-3,4-dihydroisoquinoline-2(1H)-carboxamide]	–	–	–	–	–	–	–	48	5.7 µM	> 32 µg/mL	584	108 to 111 °C	1.9 µg/mL (≈ 3.61 µM)	–	–	–	–
N-(5-(4-chloro-2-methylphenyl)pyridin-2-yl)-5-methyl-8-(4-methylpiperazin-1-yl)-3,4-dihydroisoquinoline-2(1H)-carboxamide [Compound 6]	35	2.4 µg/mL	–	22 µg/mL	22	1.9 µg/mL	–	–	–	–	–	–	–	23 µg/mL	5.5 µg/mL	–	–
Cc1cc(Cl)ccc1-c1ccc(NC(=O)N2CCc3c(F)ccc(N4CCN(C)CC4)c3C2)nc1 [Compound 42, N-(5-(4-Chloro-2-methylphenyl)pyridin-2-yl)-5-fluoro-8-(4-methylpiperazin-1-yl)-3,4-dihydroisoquinoline-2(1H)-carboxamide]	–	5.4 µg/mL (≈ 10.9 µM)	–	–	–	–	–	50	3.64 µM	12 µg/mL (≈ 24.3 µM)	65	98 to 101 °C	1.2 µg/mL (≈ 2.43 µM)	–	–	9.4 fold	–
N-(5-(3,5-bis(trifluoromethyl)phenyl)pyridin-2-yl)-5-methoxy-8-(4-methylpiperazin-1-yl)-3,4-dihydroisoquinoline-2(1H)-carboxamide [Compound 9]	–	12 µg/mL	–	19 µg/mL	–	7.9 µg/mL	–	–	–	–	–	–	–	–	–	–	unstable
COc1ccc(N2CCN(C)CC2)c2c1CCN(C(=O)Nc1ccc(-c3ccc(Cl)cc3C)cn1)C2 [Compound 8, N-(5-(4-Chloro-2-methylphenyl)pyridin-2-yl)-5-methoxy-8-(4-methylpiperazin-1-yl)-3,4-dihydroisoquinoline-2(1H)-carboxamide]	42	3.6 µg/mL (≈ 7.11 µM)	–	12 µg/mL (≈ 23.7 µM)	17	1.9 µg/mL (≈ 3.75 µM)	–	–	–	–	–	–	–	16 µg/mL	4.2 µg/mL	–	unstable
